Data reported in patent US20120270770A1, “Anti-angiogenic peptides and their uses” (priority 2010, published 2012).
“Also recorded” adds a separate entry of the source. Where a SMILES comes first, the peptide text is derived from it.

Tests used:
[1] = system: angiogenesis in Matrigel deposits imbibed with fibroblast growth factor 1 (FGF1); experiment: Matrigel deposit angiogenesis assay (FGF1-loaded Matrigel implanted in mice, histology score); type: in vivo; set-up: key to top level score reached in Matrigel deposits: ++++: This system ranks each sample using a 0 to 4 plus (+) scale; B in FIG. 13 would yield a score of +++; no + sign would yield a value of 0, as in A in FIG. 13; details: for angiogenic activity score, Sample 1 / angiogenic activity score, Sample 2 / angiogenic activity score, Sample 3 / angiogenic activity score, Sample 4 / angiogenic activity score, Sample 5 / angiogenic activity score, Sample 6 / top level score reached in Matrigel deposits / angiogenic activity score, Sample 7 / angiogenic activity score, Sample 8: 0 to 4 plus scale; for angiogenic activity score, Sample 1 / angiogenic activity score, Sample 2 / angiogenic activity score, Sample 3 / angiogenic activity score, Sample 4 / angiogenic activity score, Sample 5 / angiogenic activity score, Sample 6 / angiogenic / anti-angiogenic activity in Matrigel deposit (in words) / angiogenic activity score, Sample 7 / angiogenic activity score, Sample 8: 20 μg peptide IP daily; for angiogenic activity score, Sample 1 / angiogenic activity score, Sample 2 / angiogenic activity score, Sample 3 / angiogenic activity score, Sample 4 / angiogenic activity score, Sample 5 / angiogenic activity score, Sample 6 / angiogenic activity score, Sample 7 / angiogenic activity score, Sample 8: Day 14 histology; for % Diff.: difference of mean score from control (2.50); for angiogenic / anti-angiogenic activity in Matrigel deposit (in words): histology, Day 14; for angiogenic activity score, Mean: mean of samples, control mean 2.50
Source text: Matrigel deposits were surgically implanted on both sides of 4 mice per treatment yielding a possible 8 samples per treatment. Matrigel is a polymeric substance that appears to be relatively inert in animals and it can serve as a matrix that allows experimentation in vivo on many different difficult-to-study-processes. Prior to implantation, the Matrigel was allowed to imbibe fibroblast growth factor 1 (FGF1). This protein is a powerful inducer of angiogenesis and its presence guarantees that sufficient activity will be observed within the allotted time period of the experiment. Therefore, any inhibition of angiogenesis is likely to be a real phenomenon as the experiment has been set to heavily favor the angiogenic process. Angiogenesis occurs by day 14 and beginning Day 1 (Day 0=day of implantation), mice were injected IP daily with 20 μg of peptide in 100 μl of normal saline. The animals were sacrificed on Day 14, and each Matrigel deposit divided longitudinally and fixed in 10% buffered formalin. One of the halves of each Matrigel deposit was then sectioned. Read-out for this experiment was via histology, with semi-quantitative/qualitative counting of migration of cells and their subsequent assembly of lumenal structures within the Matrigel. This method allows us to observe the full physiologic spectrum of effects, and was useful in delineating trends. […] In FIG. 13, A represents what a section of a Matrigel gel deposit looks like under the microscope soon after surgical implantation. The sample in B is derived from the control at the conclusion of the experiment. Intense activity is present with numerous cells attaching to the surface of the Matrigel. Cells begin to penetrate the deposit and organize into discrete structures that coalesce to form the beginning of tubes twisting and branching in many directions. These venules eventually connect with the system carrying blood and it is possible to see red cells and lymphocytes within them. This process is called “arborization”, derived from the fact that the angiogenic process most closely resembles the growth of roots and branches of trees. All but two of the peptide treatments looked, more or less, like B (all the peptides of Table 1 were tested). In C, a typical sample from the peptide C-1 treatment is shown. […] Consequently, there were far fewer cells and cellular structures inside of the Matrigel. […] There were large regions of Matrigel that had no visibly associated structures and few single cells, including on the periphery, while other regions had some limited activity.
This system ranks each sample using a 0 to 4 plus (+) scale. Thus, B in FIG. 13 would yield a score of +++ while no + sign would yield a value of 0, as in A in FIG. 13. In Table 3 the data is modified to a numerical form and plotted averages are shown.

[2] = system: HMEC-1 monolayer; experiment: Endothelial cell migration assay (scraped HMEC-1 monolayer); type: cell-based; details: NT = 1.00
Procedure: The results in Table 6 are gathered from an in vitro experiment and show the ability of JC 15 10N to inhibit the migration of endothelial cells (the “minus” values). This migration is a requisite step in the formation of new blood vessels. […] The shading indicates the presence of VEGF ([…] endothelial growth factor). This growth factor causes endothelial cell migration and consequent assembly of blood vessels.
Cell migration was performed as previously described. In brief, a HMEC-1 monolayer was scraped making a 1-mm wide denuded area then stimulated with VEGF and 10N and the area unoccupied by the migrating cells was determined using MetaMorph and expressed as a percentage of control.

[3] = system: Stage IV pancreatic cancer; details: cited from earlier work
[4] = Fate of radiolabeled (3H/14C) peptide after injection into the animal; type: in vivo; details: no matter the route of administration
Source text: Lytic peptides are active in eliminating tumor-derived cells by causing direct osmotic lysis. […] Indeed, that is the case. […] However, in some cases there was little activity. To determine what might be happening in vivo, radiolabeled D2A21 was chemically synthesized with all alanines labeled with either ^3H or ^14C. Since the labeling pattern was asymmetric, it enabled us to follow the physical state of the peptide once it had been injected into the animal by comparing the unique ratios of ^3H/^14C that would result if the peptide experienced proteolysis. […] The possibility emerged that the systemic in vivo anti-cancer activity was retained within specific fragments of D2A21.

| Compound | angiogenic activity score, Sample 1 [1] | angiogenic activity score, Sample 2 [1] | angiogenic activity score, Sample 3 [1] | angiogenic activity score, Sample 4 [1] | angiogenic activity score, Sample 5 [1] | angiogenic activity score, Sample 6 [1] | % Diff. [1] [%] | angiogenic / anti-angiogenic activity in Matrigel deposit (in words) [1] | angiogenic activity score, Mean [1] | top level score reached in Matrigel deposits [1] | angiogenic activity score, Sample 7 [1] | Endothelial Cell Migration ([2]; VEGF 75 ng/ml, second series) | Endothelial Cell Migration ([2]; VEGF 150 ng/ml, first series) | Endothelial Cell Migration ([2]; VEGF 150 ng/ml, third series) | longest survival on treatment ([3]; patients with Stage IV pancreatic cancer on gemcitabine treatment) [months] | Median survival time ([3]; patients with Stage IV pancreatic cancer treated with gemcitabine (untreated 4.5 months)) [months] | angiogenic activity score, Sample 8 [1] | time to hydrolysis of labeled peptide to fragments of various lengths [4] |
| --- | --- | --- | --- | --- | --- | --- | --- | --- | --- | --- | --- | --- | --- | --- | --- | --- | --- | --- |
| IVRRADRAAVPIVNLKDELL [C-1] | 2 | 2 | 3 | 1 | 2 | 1 | −26.67 | far fewer cellular associations; also recorded: possess anti-angiogenic activity | 1.83 |  |  |  |  |  |  |  |  |  |
| FAKKFAKKFKKF [JC15-12N] | 4 | 2 | 3 | 2 | 3 | 2 | 8.57 | levels of activity higher than the control; also recorded: cannot exert an anti-angiogenic effect | 2.71 | ++++ | 3 |  |  |  |  |  |  |  |
| FAKKFAKKFKKFAKKFAK [JC15-18N] | 3 | 2 | 3 | 3 |  |  | 10.00 | levels of activity higher than the control; also recorded: cannot exert an anti-angiogenic effect | 2.75 |  |  |  |  |  |  |  |  |  |
| vascular endothelial growth factor [VEGF, reference compound] |  |  |  |  |  |  |  |  |  |  |  | 0.69 | 0.78 | 0.77 |  |  |  |  |
| MFGNGKGYRGKRATTVTGTP [PL-2] | 2 | 3 | 2 | 3 | 2 | 3 | −2.86 |  | 2.43 |  | 2 |  |  |  |  |  |  |  |
| Nc1ccn([C@@H]2O[C@H](CO)[C@@H](O)C2(F)F)c(=O)n1 [gemcitabine] |  |  |  |  |  |  |  |  |  |  |  |  |  |  | 19 | 4.8 |  |  |
| FAKKFAKFAF [JC15-10C] | 2 | 3 | 2 | 3 | 2 | 3 | 0.00 | inactive | 2.50 |  | 2 |  |  |  |  |  | 3 |  |
| C[C@H](NC(=O)[C@H](Cc1ccccc1)NC(=O)[C@H](C)NC(=O)[C@H](Cc1ccccc1)NC(=O)[C@H](CCCCN)NC(=O)[C@H](C)NC(=O)[C@H](Cc1ccccc1)NC(=O)[C@H](CCCCN)NC(=O)[C@H](CCCCN)NC(=O)[C@H](C)NC(=O)[C@H](Cc1ccccc1)NC(=O)[C@H](CCCCN)NC(=O)[C@H](CCCCN)NC(=O)[C@H](Cc1ccccc1)NC(=O)[C@H](CCCCN)NC(=O)[C@H](CCCCN)NC(=O)[C@H](C)NC(=O)[C@H](Cc1ccccc1)NC(=O)[C@H](CCCCN)NC(=O)[C@H](CCCCN)NC(=O)[C@H](C)NC(=O)[C@@H](N)Cc1ccccc1)C(=O)N[C@@H](Cc1ccccc1)C(=O)O [JC15] (H-FAKKFAKKFKKFAKKFAKFAFAF-OH; N-terminus and C-terminus assumed) |  |  |  |  |  |  |  |  |  |  |  |  |  |  |  |  |  | within minutes |
| QAWDSQSPHAHGYIPSKFPNKNLKKNY [PL-1] | 2 | 3 | 2 | 3 | 2 | 3 | 0.00 |  | 2.50 |  | 2 |  |  |  |  |  | 3 |  |
| KKFKKFAKKFAKFAF [JC15-15C] | 2 | 3 | 2 | 3 | 2 | 3 | 10.00 | levels of activity higher than the control; also recorded: cannot exert an anti-angiogenic effect | 2.75 | ++++ | 3 |  |  |  |  |  | 4 |  |
| LDLQAPLYKKIIKKLLES [PF-2] | 2 | 3 | 2 | 3 |  |  | 0.00 |  | 2.50 |  |  |  |  |  |  |  |  |  |
| PTAQLIATLKNGRKI [PF-1] | 2 | 3 | 2 | 3 |  |  | 0.00 |  | 2.50 |  |  |  |  |  |  |  |  |  |
